Measurements reported in PMC4120117 (Bioorganic & medicinal chemistry letters, 2014).

System: three MycP1 variants
Assay type: biochemical, M. tuberculosis, M. thermoresistible, M. smegmatis

## HAlaValLysAlaAlaB(OH)2 [Compound 1]
  inhibition (in words): poorer inhibition than compound 2
